Test results taken from patent publication US8921405B2, “Compounds” (Orexo AB, priority 2009, dated 2014).
Read-outs that look alike come from different tables or passages of the source.

Molecular target: T1, recombinant human mPGES-1 (Homo sapiens, UniProt O14684)
T1 construct: made in house; host or cells: Rosetta E. coli (membrane/microsome fraction)
T1 sequence (O14684 1-152): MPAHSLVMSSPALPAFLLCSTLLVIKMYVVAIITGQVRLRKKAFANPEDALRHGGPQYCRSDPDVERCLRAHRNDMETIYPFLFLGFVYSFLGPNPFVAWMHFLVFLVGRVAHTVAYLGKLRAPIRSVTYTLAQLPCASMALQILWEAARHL
Test: mPGES-1 HTRF assay (inhibition of PGE2 formation from PGH2)
Format: biochemical
Description: The basis of the assay used is to measure the inhibition of microsomal prostaglandin E2 synthase-1 (mPGES-1) dependent prostaglandin (PG) E2 formation from PGH2 by different compounds. Thus, the formation of PGE2 is used as signal and a lowering of this signal can be interpreted as inhibition of mPGES-1. […] Microsomes from Rosetta E. coli bacteria expressing recombinant human mPGES-1 can be derived as described below: Inoculate 5 ml LB with Amp and Chloro with bacteria from freeze culture. Incubate over night at 37° C. with 200 rpm. Thereafter, inoculate 500-800 ml LB containing Amp and Chloro with the 5 ml on culture and grow to OD640 of 0.6-0.8. Chill the culture to +4° C. before induction. Induce the culture with IPTG at a final concentration of 400 μM. Express the protein at room temp 18-23° C. with 200 rpm shaking over night. The following steps can be performed on the following day: • 1. Spin down the cells in 250 ml centrifuge flasks for 15 min at 7000 rpm • 2. Dissolve the pellet from 250 ml culture in 12.5 ml homogenization buffer • 3. Disintegrate the cells by sonication, 4×10 seconds at 35% amplitude • 4. Add 2.5 ml MgCl2 (100 mM) and DNase 12.5 μl (0.8 mg/ml) and incubate on ice for 30 min • 5. Spin down the bacteria debris and save the supernatant, 7000 rpm for 15 min • 6. Isolate the protein containing membranes in the supernatant by ultracentrifugation 45000×g for 1 hour. • 7. Discard the supernatant and dissolve the pellet in 20 mM KPi buffer and aliquot the enzyme and store aliquots at −80° C. Before each experiment is performed an aliquot of the enzyme is thawed and it can then be dissolved in 0.1 M KPi pH 7.4 buffer containing 2.5 mM GSH. 50 μl of this enzyme solution is subsequently dispensed in a 384-well plate at room temperature. 0.5 μl of the inhibitor dissolved in DMSO is thereafter added to each well and incubated for 25 minutes at room temperature. Subsequently, 2 μl of PGH2 dissolved in an appropriate solvent is added to each well and after one minute at room temperature, the acidified stop solution containing FeCl2 is added. 4 μl of the total volume is transferred to a separate plate and diluted 750-fold in two separate steps before quantification of PGE2. In order to quantitate the amount of PGE2 that has been formed, a homogenous time resolved fluorescent (HTRF) detection of PGE2 can be performed by the use of a commercially available kit from CisBio essentially according to the manufacturer's protocol. […] The sealing film is thereafter removed from the NC wells. • 5 μl Eu3+-cryptate labeled anti-PGE2 can now be added to rows 1 to 24 by using a Multidrop. • The plate can now be covered with sealing film. • The plate can now be centrifuge at 1200 rpm for 1 minute and place at 4° C. overnight. After the over night incubation the fluorescence is measured by the use of an appropriate microplate reader. […] The extent of the specific HTRF is measured as a ratio of the emission intensity at 665 nm vs. that at 620 nm. A standard curve using synthetic PGE2 is used to quantify the amount of PGE2 in unknown samples. The degree of inhibition can be calculated as percent inhibition by dividing the amount of PGE2 formed in unknown samples by the amount of PGE2 formed in control samples.

[1] = compound concentration of 10 μM, HTRF assay, read-out: % inhibition

## CC(=O)NC(C)c1ccc(Cl)c(Nc2nc3cc(C(=O)Nc4ccc(Br)cc4)ccc3n2C)c1 (centres unmarked) [Example 1, 2-[5-(1-Acetamidoethyl)-2-chlorophenylamino]-N-(4-bromophenyl)-1-methylbenzimidazole-5-carboxamide]
  inhibition at 10 µM: 100%

## Cn1c(Nc2cc(CNC(=O)C3(C)CCCCC3)ccc2Cl)nc2cc(C(=O)NC3CCCC3)c(Cl)cc21 [Example 3, 6-Chloro-2-{2-chloro-5-[(1-methylcyclohexylamido)methyl]phenylamino}-N-cyclopentyl-1-methylbenzimidazole-5-carboxamide]
[1]
  inhibition at 10 µM: 100%

## CC1(C(=O)NCc2ccc(Cl)c(Nc3nc4cc(C(=O)N5CCCC5)ccc4[nH]3)c2)CCCCC1 [Example 4, N-{4-Chloro-3-[5-(1-pyrrolidinylcarbonyl)-2-benzimidazolylamino]benzyl}-1-methylcyclohexylamide]
[1]
  inhibition at 10 µM: 83%

## Cn1c(Nc2cc(CNC(=O)C3(C)CCCCC3)ccc2Cl)nc2cc(Cl)c(NC(=O)OC(C)(C)C)cc21 [Example 5, tert-Butyl 5-chloro-2-{2-chloro-5-[(1-methylcyclohexylamido)methyl]phenylamino}-1-methyl-6-benzimidazolylcarbamate]
[1]
  inhibition at 10 µM: 100%

## Cn1c(Nc2cc(CNC(=O)C3(C)CCCCC3)ccc2Cl)nc2cc(Cl)c(NC(=O)C3CCCC3)cc21 [Example 6, N-{4-chloro-3-[5-chloro-6-(cyclopentylamido)-1-methyl-2-benzimidazolylamino]benzyl}-1-methylcyclohexylamide]
Compound concentration of 10 μM, HTRF assay
  % inhibition: 100%

## Cn1c(Nc2cc(CNC(=O)C3(C)CCCCC3)ccc2Cl)nc2cc(S(=O)(=O)NC3CCCC3)ccc21 [Example 7, N-{4-Chloro-3-[5-(N-cyclopentylsulfamoyl)-1-methyl-2-benzimidazolylamino]benzyl}-1-methylcyclohexylamide]
[1]
  inhibition at 10 µM: 98%

## Cn1c(Nc2cc(CNC(=O)C3(C)CC3)ccc2Cl)nc2cc(C(=O)NCC3CCCCC3)ccc21 [Example 8, 2-{2-Chloro-5-[(1-methylcyclopropylamido)methyl]phenylamino}-N-cyclohexylmethyl-1-methylbenzimidazole-5-carboxamide]
[1]
  inhibition at 10 µM: 98%

## Cn1c(Nc2cc(CNS(=O)(=O)c3cccs3)ccc2Cl)nc2cc(C(=O)NCC3CCCCC3)ccc21 [Example 9, 2-{2-Chloro-5-[(2-thienylsulfonamido)methyl]phenylamino}-N-cyclohexylmethyl-1-methylbenzimidazole-5-carboxamide]
[1]
  inhibition at 10 µM: 98%

## Cn1c(Nc2cc(CNC(=O)C3(C)CC3)ccc2Cl)nc2cc(C(=O)Nc3ccc(Br)cc3)ccc21 [Example 10]
[1]
  inhibition at 10 µM: 100%

## Cn1c(Nc2cc(CNC(=O)C3(C(F)(F)F)CC3)ccc2Cl)nc2cc(C(=O)NCC3CC3)ccc21 [Example 11, 2-{2-chloro-5-[(1-trifluoromethylcyclopropylamido)methyl]phenylamino}-N-cyclopropylmethyl-1-methylbenzimidazole-5-carboxamide]
[1]
  inhibition at 10 µM: 100%

## Cn1c(Nc2cc(CNC(=O)C3(C)CCCCC3)ccc2Cl)nc2cc(C(=O)N3CCCC3)ccc21 [Example 12, N-{4-Chloro-3-[1-methyl-5-(1-pyrrolidinylcarbonyl)-2-benzimidazolylamino]benzyl}-1-methylcyclohexylamide]
[1]
  inhibition at 10 µM: 100%

## CC1(C(=O)NCc2ccc(Cl)c(Nc3nc4ccc(C(=O)NC5CCCC5)cc4[nH]3)c2)CCCCC1 [Example 13, 2-{2-Chloro-5-[(1-methylcyclohexylamido)methyl]phenylamino}-N-cyclopentylbenzimidazole-5-carboxamide]
[1]
  inhibition at 10 µM: 100%

## Cn1c(Nc2cc(CNC(=O)C3(C)CCCCC3)ccc2Cl)nc2cc(C(=O)NC3CCCC3)ccc21 [Example 14, 2-{2-Chloro-5-[(1-methylcyclohexylamido)methyl]phenylamino}-N-cyclopentyl-1-methylbenzimidazole-5-carboxamide]
[1]
  inhibition at 10 µM: 100%

## Cn1c(Nc2cc(CNC(=O)C3(C)CCCCC3)ccc2Cl)nc2cc(C(=O)NCCOC(C)(C)C)ccc21 [Example 15, N-(2-tert-Butoxyethyl)-2-{2-chloro-5-[(1-methylcyclohexylamido)methyl]phenylamino}-1-methylbenzimidazole-5-carboxamide]
[1]
  inhibition at 10 µM: 99%

## Cn1c(Nc2cc(CNC(=O)C3(C)CCCCC3)ccc2Cl)nc2cc(C(=O)NCC3CCCCC3)ccc21 [Example 16, 2-{2-Chloro-5-[(1-methylcyclohexylamido)methyl]phenylamino}-N-cyclohexylmethyl-1-methylbenzimidazole-5-carboxamide]
[1]
  inhibition at 10 µM: 80%

## Cn1c(Nc2cc(CNC(=O)C3(C)CCCCC3)ccc2Cl)nc2cc(C(=O)NCCN3CCCCC3)ccc21 [Example 17, 2-{2-Chloro-5-[(1-methylcyclohexylamido)methyl]phenylamino]-1-methyl-N-[2-(1-piperidinyl)ethyl]benzimidazole-5-carboxamide]
[1]
  inhibition at 10 µM: 95%

## Cn1c(Nc2cc(CNC(=O)C3(C)CCCCC3)ccc2Cl)nc2cc(C(=O)NCC3CCCO3)ccc21 (centres unmarked) [Example 18, 2-{2-Chloro-5-[(1-methylcyclohexylamido)methyl]phenylamino]-1-methyl-N-[(2-tetrahydrofuryl)methyl]benzimidazole-5-carboxamide]
[1]
  inhibition at 10 µM: 98%

## CN1CCCCC1CNC(=O)c1ccc2c(c1)nc(Nc1cc(CNC(=O)C3(C)CCCCC3)ccc1Cl)n2C (centres unmarked) [Example 19, 2-{2-Chloro-5-[(1-methylcyclohexylamido)methyl]phenylamino]-1-methyl-N-[(1-methyl-2-piperidinyl)methyl]benzimidazole-5-carboxamide]
[1]
  inhibition at 10 µM: 98%

## Cn1c(Nc2cc(CNC(=O)C3(C)CCCCC3)ccc2Cl)nc2cc(C(=O)NCc3ccccn3)ccc21 [Example 20, 2-{2-Chloro-5-[(1-methylcyclohexylamido)methyl]phenylamino}-1-methyl-N-(2-pyridinylmethyl)benzimidazole-5-carboxamide]
[1]
  inhibition at 10 µM: 100%

## Cn1c(Nc2cc(CNC(=O)C3(C)CCCCC3)ccc2Cl)nc2cc(C(=O)Nc3ccc(Br)cc3)ccc21 [Example 21, N-(4-Bromophenyl)-2-{2-chloro-5-[(1-methylcyclohexylamido)methyl]-phenylamino}-1-methylbenzimidazole-5-carboxamide]
[1]
  inhibition at 10 µM: 100%

## CN(C(=O)c1ccc2c(c1)nc(Nc1cc(CNC(=O)C3(C)CCCCC3)ccc1Cl)n2C)C1CCCC1 [Example 22, 2-{2-Chloro-5-[(1-methylcyclohexylamido)methyl]phenylamino}-N-cyclopentyl-N,1-dimethylbenzimidazole-5-carboxamide]
[1]
  inhibition at 10 µM: 98%

## CC1(C(=O)NCc2ccc(Cl)c(Nc3nc4cc(C(=O)NC5CCCC5)c(Cl)cc4n3C3CCCC3)c2)CCCCC1 [Example 23, 6-Chloro-2-{2-chloro-5-[(1-methylcyclohexylamido)methyl]phenylamino}-N,1-dicyclopentylbenzimidazole-5-carboxamide]
[1]
  inhibition at 10 µM: 100%

## CC1(C(=O)NCc2ccc(Cl)c(Nc3nc4cc(Cl)c(C(=O)NC5CCCC5)cc4[nH]3)c2)CCCCC1 [Example 24, 6-Chloro-2-{2-chloro-5-[(1-methylcyclohexylamido)methyl]phenylamino}-N-cyclopentylbenzimidazole-5-carboxamide]
[1]
  inhibition at 10 µM: 97%
